Source: ChEMBL document CHEMBL1909046, “DrugMatrix in vitro pharmacology data”

Target: Matrix metalloproteinase-9 (Homo sapiens, UniProt P14780);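 also: inhibition of isolated MMP-9 enzyme activity toward a synthetic peptide substrate, from the DrugMatrix protease screening panel; in other assays of this panel Not Active means under 50% inhibition at 10 µM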
Assay type: cell-based
Details: not given

Matrix metalloproteinase-9, sequence (P14780 whole entry): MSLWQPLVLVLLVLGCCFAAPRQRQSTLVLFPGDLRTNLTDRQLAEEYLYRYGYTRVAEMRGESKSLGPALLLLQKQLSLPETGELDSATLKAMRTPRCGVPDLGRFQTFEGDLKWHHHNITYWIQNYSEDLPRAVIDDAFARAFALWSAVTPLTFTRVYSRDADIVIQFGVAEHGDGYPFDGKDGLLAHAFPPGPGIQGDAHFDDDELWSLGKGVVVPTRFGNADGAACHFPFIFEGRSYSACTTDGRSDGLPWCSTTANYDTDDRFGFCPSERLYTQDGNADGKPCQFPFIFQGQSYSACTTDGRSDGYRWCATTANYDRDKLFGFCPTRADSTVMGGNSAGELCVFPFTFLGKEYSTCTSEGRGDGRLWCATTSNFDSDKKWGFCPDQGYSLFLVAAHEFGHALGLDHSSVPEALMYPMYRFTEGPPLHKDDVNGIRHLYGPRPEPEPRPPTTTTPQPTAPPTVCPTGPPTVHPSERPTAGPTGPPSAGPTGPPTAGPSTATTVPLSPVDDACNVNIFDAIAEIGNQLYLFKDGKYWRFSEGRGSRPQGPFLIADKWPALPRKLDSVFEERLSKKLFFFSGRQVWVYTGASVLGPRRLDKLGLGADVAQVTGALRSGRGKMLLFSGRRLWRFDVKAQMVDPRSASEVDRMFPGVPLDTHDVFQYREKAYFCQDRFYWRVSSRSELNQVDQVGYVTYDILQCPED

| SMILES | IC50 |
| --- | --- |
| CO/N=C(\C(=O)N[C@@H]1C(=O)N2C(C(=O)O)=C(COC(C)=O)CS[C@H]12)c1csc(N)n1 [CEFOTAXIME] | Not Active |
| CNC1=Nc2ccc(Cl)cc2C(c2ccccc2)=[N+]([O-])C1 [CHLORDIAZEPOXIDE] | Not Active |
| Cc1cc(O)cc(C)c1Cl [CHLOROXYLENOL] | Not Active |
| CCCNC(=O)NS(=O)(=O)c1ccc(Cl)cc1 [CHLORPROPAMIDE] | Not Active |
| NS(=O)(=O)c1cc(C2(O)NC(=O)c3ccccc32)ccc1Cl (stereo not given) [CHLORTHALIDONE] | Not Active |

Target: Substance-P receptor (Homo sapiens, UniProt P25103); also: in other assays of this panel Not Active means under 50% inhibition at 10 µM
Assay type: cell membranes, CHO, Membrane
Details: cho

Substance-P receptor, sequence (P25103 whole entry): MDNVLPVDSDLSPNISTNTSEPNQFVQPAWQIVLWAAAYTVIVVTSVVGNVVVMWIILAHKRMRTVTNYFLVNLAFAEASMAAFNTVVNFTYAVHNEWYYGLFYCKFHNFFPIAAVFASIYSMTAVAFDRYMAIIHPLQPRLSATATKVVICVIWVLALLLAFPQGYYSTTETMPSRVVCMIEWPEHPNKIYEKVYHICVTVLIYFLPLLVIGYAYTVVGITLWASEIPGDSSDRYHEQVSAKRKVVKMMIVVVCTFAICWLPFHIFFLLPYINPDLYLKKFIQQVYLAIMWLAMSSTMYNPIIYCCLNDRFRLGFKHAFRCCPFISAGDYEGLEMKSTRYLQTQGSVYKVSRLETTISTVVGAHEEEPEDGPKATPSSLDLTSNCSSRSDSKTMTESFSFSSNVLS

| SMILES | IC50 |
| --- | --- |
| CO/N=C(\C(=O)N[C@@H]1C(=O)N2C(C(=O)O)=C(COC(C)=O)CS[C@H]12)c1csc(N)n1 [CEFOTAXIME] | Not Active |
| CNC1=Nc2ccc(Cl)cc2C(c2ccccc2)=[N+]([O-])C1 [CHLORDIAZEPOXIDE] | Not Active |
| Cc1cc(O)cc(C)c1Cl [CHLOROXYLENOL] | Not Active |
| CCCNC(=O)NS(=O)(=O)c1ccc(Cl)cc1 [CHLORPROPAMIDE] | Not Active |
| NS(=O)(=O)c1cc(C2(O)NC(=O)c3ccccc32)ccc1Cl (stereo not given) [CHLORTHALIDONE] | Not Active |

Target: Insulin receptor (Rattus norvegicus, UniProt P15127); also: in other assays of this panel Not Active means under 50% inhibition at 10 µM
Assay type: cell membranes, Wistar, Liver, Membrane
Details: not given

Insulin receptor, sequence (P15127 27-759 limits assumed): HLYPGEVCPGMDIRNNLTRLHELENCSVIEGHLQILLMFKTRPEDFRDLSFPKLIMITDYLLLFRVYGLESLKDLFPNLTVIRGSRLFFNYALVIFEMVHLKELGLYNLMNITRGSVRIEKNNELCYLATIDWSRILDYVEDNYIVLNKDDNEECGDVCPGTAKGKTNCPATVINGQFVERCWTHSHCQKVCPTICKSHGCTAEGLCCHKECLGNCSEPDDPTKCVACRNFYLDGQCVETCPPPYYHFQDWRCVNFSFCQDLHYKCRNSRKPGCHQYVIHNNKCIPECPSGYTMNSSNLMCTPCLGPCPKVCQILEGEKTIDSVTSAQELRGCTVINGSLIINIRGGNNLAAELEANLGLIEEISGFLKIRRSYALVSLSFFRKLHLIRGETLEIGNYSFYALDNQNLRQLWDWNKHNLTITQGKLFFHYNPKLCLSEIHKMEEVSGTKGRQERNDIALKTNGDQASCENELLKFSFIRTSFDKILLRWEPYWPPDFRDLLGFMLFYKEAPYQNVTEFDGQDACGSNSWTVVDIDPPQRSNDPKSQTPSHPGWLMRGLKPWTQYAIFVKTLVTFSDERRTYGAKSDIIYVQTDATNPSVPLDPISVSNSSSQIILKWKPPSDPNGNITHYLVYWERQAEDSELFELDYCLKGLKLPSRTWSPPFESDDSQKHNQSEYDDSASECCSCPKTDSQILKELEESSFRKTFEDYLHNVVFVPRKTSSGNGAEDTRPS
Insulin receptor, sequence (P15127 764-1383 limits assumed): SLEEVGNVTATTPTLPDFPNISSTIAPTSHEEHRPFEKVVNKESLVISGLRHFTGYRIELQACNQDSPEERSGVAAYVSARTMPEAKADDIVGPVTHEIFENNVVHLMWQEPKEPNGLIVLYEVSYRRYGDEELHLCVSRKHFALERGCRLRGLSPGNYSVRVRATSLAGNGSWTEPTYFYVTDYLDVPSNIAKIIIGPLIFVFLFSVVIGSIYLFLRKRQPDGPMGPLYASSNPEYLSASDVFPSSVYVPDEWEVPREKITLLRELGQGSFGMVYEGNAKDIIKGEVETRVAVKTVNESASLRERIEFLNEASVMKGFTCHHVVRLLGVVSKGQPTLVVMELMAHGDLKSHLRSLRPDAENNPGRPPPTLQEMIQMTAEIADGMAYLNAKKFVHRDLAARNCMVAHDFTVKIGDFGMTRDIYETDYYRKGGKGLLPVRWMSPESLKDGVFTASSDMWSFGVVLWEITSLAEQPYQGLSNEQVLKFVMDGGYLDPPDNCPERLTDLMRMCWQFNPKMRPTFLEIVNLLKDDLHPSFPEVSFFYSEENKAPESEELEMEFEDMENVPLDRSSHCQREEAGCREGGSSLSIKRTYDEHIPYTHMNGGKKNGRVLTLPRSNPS

| SMILES | IC50 |
| --- | --- |
| CO/N=C(\C(=O)N[C@@H]1C(=O)N2C(C(=O)O)=C(COC(C)=O)CS[C@H]12)c1csc(N)n1 [CEFOTAXIME] | Not Active |
| CNC1=Nc2ccc(Cl)cc2C(c2ccccc2)=[N+]([O-])C1 [CHLORDIAZEPOXIDE] | Not Active |
| Cc1cc(O)cc(C)c1Cl [CHLOROXYLENOL] | Not Active |
| CCCNC(=O)NS(=O)(=O)c1ccc(Cl)cc1 [CHLORPROPAMIDE] | Not Active |
| NS(=O)(=O)c1cc(C2(O)NC(=O)c3ccccc32)ccc1Cl (stereo not given) [CHLORTHALIDONE] | Not Active |

Target: Protein kinase C alpha type (Homo sapiens, UniProt P17252);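 also: inhibition of PKCalpha kinase activity measured in an enzyme assay with histone as the phosphorylation substrate; in other assays of this panel Not Active means under 50% inhibition at 10 µM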
Assay type: cell-based
Details: sf9

| SMILES | IC50 |
| --- | --- |
| CO/N=C(\C(=O)N[C@@H]1C(=O)N2C(C(=O)O)=C(COC(C)=O)CS[C@H]12)c1csc(N)n1 [CEFOTAXIME] | Not Active |
| CNC1=Nc2ccc(Cl)cc2C(c2ccccc2)=[N+]([O-])C1 [CHLORDIAZEPOXIDE] | Not Active |
| Cc1cc(O)cc(C)c1Cl [CHLOROXYLENOL] | Not Active |
| CCCNC(=O)NS(=O)(=O)c1ccc(Cl)cc1 [CHLORPROPAMIDE] | Not Active |
| NS(=O)(=O)c1cc(C2(O)NC(=O)c3ccccc32)ccc1Cl (stereo not given) [CHLORTHALIDONE] | Not Active |

Target: T1, Muscarinic acetylcholine receptor M2 (Homo sapiens, UniProt P08172); also: in other assays of this panel Not Active means under 50% inhibition at 10 µM
T1 sequence (P08172 whole entry): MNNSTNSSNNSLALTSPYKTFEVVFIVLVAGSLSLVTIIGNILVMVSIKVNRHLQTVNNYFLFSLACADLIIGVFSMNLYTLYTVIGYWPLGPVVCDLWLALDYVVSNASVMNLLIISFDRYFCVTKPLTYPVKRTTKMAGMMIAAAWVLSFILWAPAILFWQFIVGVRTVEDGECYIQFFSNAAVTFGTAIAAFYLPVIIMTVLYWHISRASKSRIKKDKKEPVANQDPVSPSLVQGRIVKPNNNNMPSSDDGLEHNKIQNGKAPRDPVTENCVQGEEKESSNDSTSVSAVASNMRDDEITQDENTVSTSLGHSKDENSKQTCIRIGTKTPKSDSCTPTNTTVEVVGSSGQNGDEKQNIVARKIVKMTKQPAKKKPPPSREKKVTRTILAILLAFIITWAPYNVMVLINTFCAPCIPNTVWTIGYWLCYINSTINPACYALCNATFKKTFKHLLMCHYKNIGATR
Assay type: cell membranes, CHO-K1, Membrane
Details: cho-k1

| SMILES | IC50 |
| --- | --- |
| CO/N=C(\C(=O)N[C@@H]1C(=O)N2C(C(=O)O)=C(COC(C)=O)CS[C@H]12)c1csc(N)n1 [CEFOTAXIME] | Not Active |
| CNC1=Nc2ccc(Cl)cc2C(c2ccccc2)=[N+]([O-])C1 [CHLORDIAZEPOXIDE] | Not Active |
| Cc1cc(O)cc(C)c1Cl [CHLOROXYLENOL] | Not Active |
| CCCNC(=O)NS(=O)(=O)c1ccc(Cl)cc1 [CHLORPROPAMIDE] | Not Active |
| NS(=O)(=O)c1cc(C2(O)NC(=O)c3ccccc32)ccc1Cl (stereo not given) [CHLORTHALIDONE] | Not Active |

Test system: not listed separately
Assay: DRUGMATRIX: Glutamate, Kainate radioligand binding (ligand: [3H] Kainic acid)
Assay type: cell membranes, Rattus norvegicus, Wistar, Brain, Membrane
Details: Not Active = under 50% inhibition at 10 µM

| SMILES | IC50 | Ki |
| --- | --- | --- |
| CO/N=C(\C(=O)N[C@@H]1C(=O)N2C(C(=O)O)=C(COC(C)=O)CS[C@H]12)c1csc(N)n1 [CEFOTAXIME] | Not Active | Not Active |
| CNC1=Nc2ccc(Cl)cc2C(c2ccccc2)=[N+]([O-])C1 [CHLORDIAZEPOXIDE] | Not Active | Not Active |
| Cc1cc(O)cc(C)c1Cl [CHLOROXYLENOL] | Not Active | Not Active |
| CCCNC(=O)NS(=O)(=O)c1ccc(Cl)cc1 [CHLORPROPAMIDE] | Not Active | Not Active |
| NS(=O)(=O)c1cc(C2(O)NC(=O)c3ccccc32)ccc1Cl (stereo not given) [CHLORTHALIDONE] | Not Active | Not Active |

Target: T2, 3-hydroxy-3-methylglutaryl-coenzyme A reductase (Homo sapiens, UniProt P04035)
T2 sequence (P04035 whole entry): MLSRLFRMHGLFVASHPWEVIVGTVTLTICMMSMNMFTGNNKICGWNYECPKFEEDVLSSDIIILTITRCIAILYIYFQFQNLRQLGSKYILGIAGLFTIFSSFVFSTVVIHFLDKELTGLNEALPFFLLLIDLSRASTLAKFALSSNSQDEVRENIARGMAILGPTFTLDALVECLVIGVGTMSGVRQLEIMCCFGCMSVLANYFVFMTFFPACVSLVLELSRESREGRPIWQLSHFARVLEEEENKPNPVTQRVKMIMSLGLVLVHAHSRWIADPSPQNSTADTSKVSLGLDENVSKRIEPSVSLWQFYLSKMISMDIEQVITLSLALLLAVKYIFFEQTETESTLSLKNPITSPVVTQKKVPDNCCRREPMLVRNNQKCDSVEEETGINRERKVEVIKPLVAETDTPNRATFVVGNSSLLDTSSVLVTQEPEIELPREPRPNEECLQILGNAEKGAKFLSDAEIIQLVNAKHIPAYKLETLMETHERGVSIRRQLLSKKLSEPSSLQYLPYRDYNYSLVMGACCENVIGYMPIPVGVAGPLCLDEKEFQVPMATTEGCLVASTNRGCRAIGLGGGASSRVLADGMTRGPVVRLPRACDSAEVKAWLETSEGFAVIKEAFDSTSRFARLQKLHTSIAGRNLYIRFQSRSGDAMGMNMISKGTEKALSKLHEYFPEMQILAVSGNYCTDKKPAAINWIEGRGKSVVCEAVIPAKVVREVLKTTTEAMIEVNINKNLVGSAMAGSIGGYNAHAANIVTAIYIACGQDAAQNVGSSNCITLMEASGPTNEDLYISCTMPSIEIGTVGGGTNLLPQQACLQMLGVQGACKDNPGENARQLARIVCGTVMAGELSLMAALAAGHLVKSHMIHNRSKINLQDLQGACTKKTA
Parameters: species or system Escherichia coli
Details: not given

| SMILES | IC50 |
| --- | --- |
| CO/N=C(\C(=O)N[C@@H]1C(=O)N2C(C(=O)O)=C(COC(C)=O)CS[C@H]12)c1csc(N)n1 [CEFOTAXIME] | Not Active |
| CNC1=Nc2ccc(Cl)cc2C(c2ccccc2)=[N+]([O-])C1 [CHLORDIAZEPOXIDE] | Not Active |
| Cc1cc(O)cc(C)c1Cl [CHLOROXYLENOL] | Not Active |
| CCCNC(=O)NS(=O)(=O)c1ccc(Cl)cc1 [CHLORPROPAMIDE] | Not Active |
| NS(=O)(=O)c1cc(C2(O)NC(=O)c3ccccc32)ccc1Cl (stereo not given) [CHLORTHALIDONE] | Not Active |

Test system: not listed separately
Assay: DRUGMATRIX: Tumor Necrosis Factor (TNF), Non-Selective radioligand binding (ligand: [125I] TNF-alpha)
Assay type: cell membranes, Membrane
Details: u-937; Not Active = under 50% inhibition at 10 µM

| SMILES | IC50 | Ki |
| --- | --- | --- |
| CO/N=C(\C(=O)N[C@@H]1C(=O)N2C(C(=O)O)=C(COC(C)=O)CS[C@H]12)c1csc(N)n1 [CEFOTAXIME] | Not Active | Not Active |
| CNC1=Nc2ccc(Cl)cc2C(c2ccccc2)=[N+]([O-])C1 [CHLORDIAZEPOXIDE] | Not Active | Not Active |
| Cc1cc(O)cc(C)c1Cl [CHLOROXYLENOL] | Not Active | Not Active |
| CCCNC(=O)NS(=O)(=O)c1ccc(Cl)cc1 [CHLORPROPAMIDE] | Not Active | Not Active |
| NS(=O)(=O)c1cc(C2(O)NC(=O)c3ccccc32)ccc1Cl (stereo not given) [CHLORTHALIDONE] | Not Active | Not Active |

Target: T3, Caspase-1 (Homo sapiens, UniProt P29466)
T3 sequence (P29466 whole entry): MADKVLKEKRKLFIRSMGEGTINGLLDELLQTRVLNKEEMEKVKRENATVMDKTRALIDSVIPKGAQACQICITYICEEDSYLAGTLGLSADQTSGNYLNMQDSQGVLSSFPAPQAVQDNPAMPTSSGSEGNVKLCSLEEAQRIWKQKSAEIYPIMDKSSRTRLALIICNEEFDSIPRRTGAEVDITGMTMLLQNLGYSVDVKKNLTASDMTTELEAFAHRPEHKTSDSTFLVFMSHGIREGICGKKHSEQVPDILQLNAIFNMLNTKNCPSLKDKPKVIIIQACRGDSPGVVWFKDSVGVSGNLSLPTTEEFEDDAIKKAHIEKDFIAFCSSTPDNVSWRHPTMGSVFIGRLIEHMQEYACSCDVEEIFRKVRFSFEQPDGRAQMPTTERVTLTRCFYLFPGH
Parameters: species or system Escherichia coli
Details: not given

| SMILES | IC50 |
| --- | --- |
| CO/N=C(\C(=O)N[C@@H]1C(=O)N2C(C(=O)O)=C(COC(C)=O)CS[C@H]12)c1csc(N)n1 [CEFOTAXIME] | Not Active |
| CNC1=Nc2ccc(Cl)cc2C(c2ccccc2)=[N+]([O-])C1 [CHLORDIAZEPOXIDE] | Not Active |
| Cc1cc(O)cc(C)c1Cl [CHLOROXYLENOL] | Not Active |
| CCCNC(=O)NS(=O)(=O)c1ccc(Cl)cc1 [CHLORPROPAMIDE] | Not Active |
| NS(=O)(=O)c1cc(C2(O)NC(=O)c3ccccc32)ccc1Cl (stereo not given) [CHLORTHALIDONE] | Not Active |
